Measured values as given in patent publication US20060286237A1, “Use of divanillin as a flavouring agent” (priority 2003, published 2006).

Tests used:
[1] = Taste threshold value determination
[2] = as described in JP 07-179853 A2; cited from earlier work
[3] = Sensory investigation of the taste impression of divanillin

COc1cc(C=O)cc(-c2cc(C=O)cc(OC)c2O)c1O [divanillin, 6,6′-dihydroxy-5,5′-dimethoxy-[1,1′-biphenyl]-3,3′-dicarboxaldehyde]
taste threshold value [1]: below 1 ppm
odour and taste description [2]: odourless and tasteless
taste impression at higher concentration ([3]; higher concentration values preferred according to JP 07-179853 A2 (0.001 to 5 wt. %)): diminishes in favour of a vanilla-like individual taste
taste impression ([3]; own investigations): pleasant, adherent and rich taste impression of creaminess, milk fattiness, butteriness and sweetness
